Here are results for six compounds from patent EP3878460A1, “GREEN TEA EXTRACT HAVING MODIFIED CONSTITUENT CONTENT AND COMPOSITION COMPRISING SAME” (priority 2018, dated 2020).

The subject of series [1] is hepatocytes (HepG2 cells). Nature of the series: Hepacytotoxicity, cell viability by MTS assay. The protocol: In order to investigate the hepatotoxicity of the high-temperature-processed green tea extract obtained in Example 1 (sample 2), hepatocytes (HepG2 cells) acquired from Korean Cell Line Bank were seeded onto a 96-well plate (Falcon) with 1×10^5 cells per well and cultured for 24 hours in a 5% CO2 incubator at 37 °C. Then, after treating with the sample 1 or sample 2 at 5, 10, 25, 50 or 100 µg/mL and culturing further for 24 hours, the medium was removed and cell viability was investigated using a CellTiter 96 AQueous One Solution cell proliferation assay kit (MTS, Promega Co. Madison, WI, USA). After treating the cells with 20 µL of a CellTiter 96 AQueous One Solution cell proliferation assay kit (MTS, Promega Co. Madison, WI, USA) solution added to 100 µL of RPMI1640 (Lonza), the number of live cells was quantified by measuring absorbance at 490 nm. The cell number or cell viability (%) was calculated by the following equation. Cell viability (%) = (absorbanceofsample-treatedgroup−absorbanceofreagentalone)/(absorbanceofnon-treatedgroup−absorbanceofreagentalone) × 100 [formula]
After treating the cells with 20 µL of a CellTiter 96 AQueous One Solution cell proliferation assay kit (MTS, Promega Co. Madison, WI, USA) solution added to 100 µL of RPMI1640 (Lonza), the number of live cells was quantified by measuring absorbance at 490 nm. The cell number or cell viability (%) was calculated as described in Test Example 1.
For orientation: Tetrazolium assays rely on reduction of a dye to a coloured formazan, in cell work by metabolically active cells.

The subject of series [2] is HepG2 human liver cancer cells. Nature of the series: Inhibition of lipid accumulation in hepatocytes (Oil Red O staining, stearic acid load). In kind it is cell-based. Particulars: 100 µM stearic acid, 48 hours, FIG. 8. Here is the method:
In order to investigate the effect of inhibiting lipid accumulation in hepatocytes of the green tea extract sample 1 and sample 2 of Example 1, the inhibition of fat accumulation was compared after culturing HepG2 human liver cancer cells and treating with each sample.
Specifically, hepatocytes (HepG2 cells) were seeded onto a 12-well plate (Falcon) with 1×10^6 cells per well and cultured in a 5% CO2 incubator at 37 °C for 24 hours. Then, after treating with each of the sample 1 and the sample 2 at 3, 10 or 30 µg/mL and 100 µM stearic acid conjugated with bovine serum albumin (BSA), the cells were cultured for 48 hours. After removing the medium and washing with PBS, the cells were fixed with 4% formaldehyde. After incubating with 100% propylene glycol for 5 minutes, the fat in the cells was stained by adding 500 µL of Oil Red O solution (Sigma) per well and culturing the cells for 2 hours. […] After transferring 200 µL of the isopropanol solution to a 96-well plate, the fat accumulated in the cells was quantified by measuring absorbance at 485 nm. The Oil Red O content (%) relative to a control group (0.1% (v/v) DMSO) was calculated by the following equation. Oil red O content (%) = (absorbanceofsample-treatedgroup−absorbanceofcontrolgroup) × 100 [formula] […]

The subject of series [3] is hepatocytes (HepG2 cells). In kind it is cell-based, human. Here is the method: The experimental condition was the same as in Test Example 1. After treating the cells with the sample 1 or sample 2, the levels of malate dehydrogenase 1 (MDH 1), α-glutathione S-transferase (GSTα) and sorbitol dehydrogenase (SDH) in the cell culture were measured 24 later.
In order to investigate the effect of the EGCG, GCG and EGC among the eight catechins on hepatocyte damage, release of enzymes from hepatocytes due to hepatocyte damage was analyzed using the MILLIPLEX Analyst software (Millipore). The experimental condition was the same as in Test Example 3. After treating the cells with EGCG, GCG or EGC, the levels of malate dehydrogenase 1 (MDH 1), α-glutathione S-transferase (GSTα) and sorbitol dehydrogenase (SDH) in the cell culture were measured 24 later.

[4] abbreviates: HepG2 cells, 10, 50, 100 or 200 µM, 24 hours, calculated from cell viability.

For the compound `Oc1cc(O)c2c(c1)O[C@H](c1cc(O)c(O)c(O)c1)[C@@H](O)C2` [GC, gallocatechin], the LD50 in series [1] (setting [4]) is 236.2 µM.

`O=C(O[C@@H]1Cc2c(O)cc(O)cc2O[C@@H]1c1cc(O)c(O)c(O)c1)c1cc(O)c(O)c(O)c1` [EGCG, epigallocatechin gallate]: the LD50 in series [1] (setting [4]) is listed as 355.5 µM.

On to `Oc1cc(O)c2c(c1)O[C@H](c1ccc(O)c(O)c1)[C@H](O)C2` [EC, (-)epicatechin], for which the LD50 in series [1] (human, 24 h) was found to be 505.0 µM.

Consider `O=C(O[C@@H]1Cc2c(O)cc(O)cc2O[C@H]1c1cc(O)c(O)c(O)c1)c1cc(O)c(O)c(O)c1` [GCG, gallocatechin gallate], for which the LD50 in series [1] (setting [4]) is reported as 212.7 µM. Besides, the “effect of inhibiting lipid accumulation in hepatocytes compared to EGCG at the same concentration” value in series [2] is listed as “remarkably excellent effect of inhibiting lipid accumulation in hepatocytes”.

With `Oc1cc(O)c2c(c1)O[C@H](c1cc(O)c(O)c(O)c1)[C@H](O)C2` [EGC, epigallocatechin], the “hepacytotoxicity among the eight catechins” value in series [1] is “highest hepacytotoxicity”. In series [1] (setting [4]), the LD50 was 183.9 µM. In addition, the “levels of the three enzymes (MDH 1, GSTα, SDH) in the cell culture” value in series [3] is “highest”.

epicatechin 3-O-gallate [ECG]: the LD50 in series [1] (setting [4]) is given as 209.0 µM.
